The structures appear in SMILES notation.

The subject of one assay is fulvestrant-resistant MCF7:5C-FR cells. Kind of assay: Fulvestrant-resistant breast cancer cell viability (cell proliferation) assay. The format is cell-based. The note with it: 120 h, growth inhibition in fulvestrant-resistant MCF-7:CFR cells, 120 hrs. A digest of the protocol:
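Cells were treated the day after seeding with compounds at 3 nM to 10 uM for 120 h, with 0.1% DMSO vehicle and 1 uM JQ1 as positive control. Hoechst 33342-stained (5 μg/ml, 90 min, 37 C) nuclei were imaged and counted, and cell numbers normalized to vehicle.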
In turn, `CCS(=O)(=O)Nc1cc(-c2cn(C)c3c(O)nccc23)cc2c1ccn2Cc1ccccc1` [Compound 49, N-(1-benzyl-6-(7-hydroxy-1-methyl-1H-pyrrolo[2,3-c]pyridin-3-yl)-1H-indol-4-yl)ethanesulfonamide] had an IC50 of less than 1 µM. Regarding `CCS(=O)(=O)Nc1cc(-c2cn(CCCl)c3c(O)nccc23)cc2c1ccn2Cc1ccc(Cl)c(Cl)c1` [Compound 87, N-(6-(1-(2-chloroethyl)-7-hydroxy-1H-pyrrolo[2,3-c]pyridin-3-yl)-1-(3,4-dichlorobenzyl)-1H-indol-4-yl)ethanesulfonamide], the IC50 was less than 1 µM.

Compound `CC(=O)Nc1cccc2c1cc(-c1cn(C)c3c(O)nccc13)n2[C@H](c1ccccc1)C1CCOCC1` [Compound 119, (S)-N-(2-(7-hydroxy-1-methyl-1H-pyrrolo[2,3-c]pyridin-3-yl)-1-(phenyl(tetrahydro-2H-pyran-4-yl)methyl)-1H-indol-4-yl)acetamide] came in with an IC50 of less than 1 µM.

Compound `CCS(=O)(=O)Nc1cc(-c2cn(CCCl)c3c(O)nccc23)cc2c1ccn2Cc1ccc(F)cc1C` [Compound 81, N-(6-(1-(2-chloroethyl)-7-hydroxy-1H-pyrrolo[2,3-c]pyridin-3-yl)-1-(4-fluoro-2-methylbenzyl)-1H-indol-4-yl)ethanesulfonamide] had an IC50 greater than 0.1 µM. In turn, `CCS(=O)(=O)Nc1cccc2c1nc(-c1cn(C)c3c(O)nccc13)n2Cc1c(C)cc(F)cc1C` [Compound 42, N-(1-(4-fluoro-2,6-dimethylbenzyl)-2-(7-hydroxy-1-methyl-1H-pyrrolo[2,3-c]pyridin-3-yl)-1H-benzo[d]imidazol-4-yl)ethanesulfonamide] showed an IC50 of less than 1 µM. Regarding `O=C(c1cccc(-c2ccc(F)cc2)c1)c1cn(CCCl)c2c(O)nccc12` [Compound 7, (1-(2-chloroethyl)-7-hydroxy-1H-pyrrolo[2,3-c]pyridin-3-yl)(4′-fluoro-[1,1′-biphenyl]-3-yl)methanone], the IC50 came to 1.5 µM. Compound `Cn1cc(-c2cn(CC(N)=O)c3ccc(Br)cc23)c2ccnc(O)c21` [Compound 18, 2-(5-bromo-3-(7-hydroxy-1-methyl-1H-pyrrolo[2,3-c]pyridin-3-yl)-1H-indol-1-yl)acetamide] yielded an IC50 greater than 1 µM. In the case of `Cc1cc(F)cc(C)c1Cn1ccc2c(C(C)(C)O)cc(-c3cn(C)c4c(=O)[nH]ccc34)cc21` [Compound 108, 3-(1-(4-fluoro-2,6-dimethylbenzyl)-4-(2-hydroxypropan-2-yl)-1H-indol-6-yl)-1-methyl-1,6-dihydro-7H-pyrrolo[2,3-c]pyridin-7-one], the IC50 was less than 1 µM. For the compound `Cc1cccc(C)c1Cn1ccc2c(C(C)(C)O)cc(-c3cn(C)c4c(=O)[nH]ccc34)cc21` [Compound 113, 3-(1-(2,6-dimethylbenzyl)-4-(2-hydroxypropan-2-yl)-1H-indol-6-yl)-1-methyl-1,6-dihydro-7H-pyrrolo[2,3-c]pyridin-7-one], the IC50 was less than 1 µM.

As for `CNS(=O)(=O)CCc1ccc(OCc2ccc(F)cc2)cc1C(=O)c1cn(C)c2c(O)nccc12` [Compound 13, 2-(4-((4-fluorobenzyl)oxy)-2-(7-hydroxy-1-methyl-1H-pyrrolo[2,3-c]pyridine-3-carbonyl)phenyl)-N-methylethane-1-sulfonamide], the IC50 was greater than 1 µM. Same read-out and setting: next, `CCS(=O)(=O)Nc1cc(-c2cn(C)c3c(O)nccc23)cc2c1cnn2Cc1ccc(F)cc1Cl` [Compound 35, N-(1-(2-chloro-4-fluorobenzyl)-6-(7-hydroxy-1-methyl-1H-pyrrolo[2,3-c]pyridin-3-yl)-1H-indazol-4-yl)ethanesulfonamide]: less than 0.5 µM; `CNS(=O)(=O)CCc1ccc(OCC2CCC2)cc1C(=O)c1cn(C)c2c(O)nccc12` [Compound 14, 2-(4-(cyclobutylmethoxy)-2-(7-hydroxy-1-methyl-1H-pyrrolo[2,3-c]pyridine-3-carbonyl)phenyl)-N-methylethane-1-sulfonamide]: greater than 1 µM. `CCS(=O)(=O)Nc1cc(-c2cn(C)c3c(O)nccc23)cc2c1ccn2Cc1cc(Cl)ccc1OC` [Compound 51, N-(1-(5-chloro-2-methoxybenzyl)-6-(7-hydroxy-1-methyl-1H-pyrrolo[2,3-c]pyridin-3-yl)-1H-indol-4-yl)ethanesulfonamide] gave an IC50 of less than 1 µM. As for `Cn1cc(C(OCC2CCC2)c2cccc(-c3ccc(F)cc3)c2)c2ccnc(O)c21` (stereo not drawn) [Compound 11, 3-((cyclobutylmethoxy)(4′-fluoro-[1,1′-biphenyl]-3-yl)methyl)-1-methyl-1H-pyrrolo[2,3-c]pyridin-7-ol], the IC50 is greater than 5 µM.

On to `Cn1cc(C(=O)c2cccc(-c3ccc(F)cc3)c2)c2ccnc(O)c21` [Compound 2, (4′-fluoro-[1,1′-biphenyl]-3-yl)(7-hydroxy-1-methyl-1H-pyrrolo[2,3-c]pyridin-3-yl)methanone], for which 0.157 µM corresponded to half-maximal inhibition (IC50). This counts as sub-micromolar. `CCS(=O)(=O)Nc1cc(-c2cn(C)c3c(O)nccc23)cc2c1ccn2Cc1ccc(O)c(Cl)c1` [Compound 54, N-(1-(3-chloro-4-hydroxybenzyl)-6-(7-hydroxy-1-methyl-1H-pyrrolo[2,3-c]pyridin-3-yl)-1H-indol-4-yl)ethanesulfonamide] displayed an IC50 greater than 0.1 µM. On the same count and under the same terms, next, `Cn1cc(-c2c[nH]c3ccc(-c4ccc(F)cc4)cc23)c2ccnc(O)c21` [Compound 17, 3-(5-(4-fluorophenyl)-1H-indol-3-yl)-1-methyl-1H-pyrrolo[2,3-c]pyridin-7-ol]: greater than 1 µM. In turn, `Cc1cc(F)cc(C)c1Cn1ccc2c(NS(C)(=O)=O)cc(-c3cn(C)c4c(=O)[nH]ccc34)cc21` [Compound 101, N-(1-(4-fluoro-2,6-dimethylbenzyl)-6-(1-methyl-7-oxo-6,7-dihydro-1H-pyrrolo[2,3-c]pyridin-3-yl)-1H-indol-4-yl)methanesulfonamide] registered an IC50 of less than 1 µM. `CCS(=O)(=O)Nc1cc(-c2cn(C)c3c(O)nccc23)cc2c1ccn2Cc1c(C)cccc1C` [Compound 28, N-(1-(2,6-dimethylbenzyl)-6-(7-hydroxy-1-methyl-1H-pyrrolo[2,3-c]pyridin-3-yl)-1H-indol-4-yl)ethanesulfonamide] yielded an IC50 of less than 1 µM. `CCN(C(=O)C1COC1)c1cc(-c2cn(C)c3c(=O)[nH]ccc23)cc2c1ccn2Cc1c(C)cccc1C` [Compound 77, N-(1-(2,6-dimethylbenzyl)-6-(7-hydroxy-1-methyl-1H-pyrrolo[2,3-c]pyridin-3-yl)-1H-indol-4-yl)-N-ethyloxetane-3-carboxamide]: the IC50 was greater than 0.1 µM. In turn, `Cn1cc(-c2cc(NS(C)(=O)=O)cc3ccn(Cc4ccc(F)cc4)c23)c2ccnc(O)c21` [Compound 20, N-(1-(4-fluorobenzyl)-7-(7-hydroxy-1-methyl-1H-pyrrolo[2,3-c]pyridin-3-yl)-1H-indol-5-yl)methanesulfonamide] gave an IC50 of 1.99 µM.

Take `CCS(=O)(=O)Nc1cc(-c2cn(C)c3c(O)nccc23)cc2c1ccn2Cc1cc(Cl)c(O)cc1C` [Compound 55, N-(1-(5-chloro-4-hydroxy-2-methylbenzyl)-6-(7-hydroxy-1-methyl-1H-pyrrolo[2,3-c]pyridin-3-yl)-1H-indol-4-yl)ethanesulfonamide]: the IC50 was greater than 0.1 µM. Same read-out and setting: the value for `Cn1cc(C(=O)c2ccc(-c3ccc(F)cc3)cc2)c2ccnc(O)c21` [Compound 4, (4′-fluoro-[1,1′-biphenyl]-4-yl)(7-hydroxy-1-methyl-1H-pyrrolo[2,3-c]pyridin-3-yl)methanone] was greater than 5 µM; that for `CC(C)C(=O)Nc1cccc2c1cc(-c1cn(C)c3c(O)nccc13)n2[C@H](c1ccccc1)C1CCOCC1` [Compound 125, (S)-N-(2-(7-hydroxy-1-methyl-1H-pyrrolo[2,3-c]pyridin-3-yl)-1-(phenyl(tetrahydro-2H-pyran-4-yl)methyl)-1H-indol-4-yl)isobutyramide] was less than 1 µM. For the compound `CS(=O)(=O)Nc1cc(-c2cn(CC3CO3)c3c(O)nccc23)cc2c1ccn2Cc1ccc(F)cc1` (stereo not drawn) [Compound 89, N-(1-(4-fluorobenzyl)-6-(7-hydroxy-1-(oxiran-2-ylmethyl)-1H-pyrrolo[2,3-c]pyridin-3-yl)-1H-indol-4-yl)methanesulfonamide], the half-inhibitory concentration (IC50) was less than 1 µM. In turn, `CCS(=O)(=O)Nc1cc(-c2cn(C)c3c(O)nccc23)cc2c1cnn2Cc1cccc2ccsc12` [Compound 44, N-(1-(benzo[b]thiophen-7-ylmethyl)-6-(7-hydroxy-1-methyl-1H-pyrrolo[2,3-c]pyridin-3-yl)-1H-indazol-4-yl)ethanesulfonamide] yielded an IC50 greater than 0.1 µM.

The compound `Cn1cc(-c2nc3c(NS(C)(=O)=O)cccc3n2[C@H](c2ccccc2)C2CCOCC2)c2ccnc(O)c21` [Compound 67, (S)-N-(2-(7-hydroxy-1-methyl-1H-pyrrolo[2,3-c]pyridin-3-yl)-1-(phenyl(tetrahydro-2H-pyran-4-yl)methyl)-1H-benzo[d]imidaol-4-yl)methanesulfonamide] had an IC50 of less than 1 µM. The same measure, in the same setting: the value for `Cn1cc(C(=O)c2ccccc2)c2ccnc(O)c21` [Compound 5, (7-hydroxy-1-methyl-1H-pyrrolo[2,3-c]pyridin-3-yl)(phenyl)methanone] was greater than 5 µM.

Staying with this assay, now noted: growth inhibition in fulvestrant-resistant MCF-7:CFR cells, 120 hrs.
In the case of `CCS(=O)(=O)Nc1cc(-c2cn(CCCl)c3c(O)nccc23)cc2c1ccn2Cc1c(C)cccc1C` [Compound 84, N-(6-(1-(2-chloroethyl)-7-hydroxy-1H-pyrrolo[2,3-c]pyridin-3-yl)-1-(2,6-dimethylbenzyl)-1H-indol-4-yl)ethanesulfonamide], the IC50 was less than 1 µM. The compound `O=C(c1cccc(-c2ccc(F)cc2)c1)c1cn(CCCCl)c2c(O)nccc12` [Compound 8, (1-(3-chloropropyl)-7-hydroxy-1H-pyrrolo[2,3-c]pyridin-3-yl)(4′-fluoro-[1,1′-biphenyl]-3-yl)methanone] registered an IC50 greater than 5 µM.

The values are drawn from patent publication US11840533B2, “Pyridinone-based epigenetic modifiers and uses thereof” (THE BOARD OF TRUSTEES OF THE UNIVERSITY OF ILLINOIS, priority 2017, dated 2023).
